Data on 20 molecules can be found in US8367666B2 (priority 2004, dated 2013).

Data set [1] deals with respiratory function after cigarette smoke exposure. Nature of the data set: Cigarette smoke exposure, deterioration of guinea pig's breath function (COPD model). It is filed as in vivo, Hartley guinea pig. The note with it: 30 mg/kg a day, oral, Student t-test. Here is the method:
The main current smoke of a cigarette with a filter tip commercially available (Highlight, nicotine 1.4 mg content, and tar 17 mg content, Japan Tabaco Inc.) was exposed to the nose and the mouth of a Hartley guinea pig (obtained from Japan SLC Co., Ltd.) at the rate of 30 pieces of the cigarettes a day for five days a week during 30 days with a cigarette smoke exposure device for an animal (manufactured by […] Co., Ltd.). (Wright J L, Churg A. Cigarette smoke causes physiologic and morphologic changes of emphysema in the guinea pig Am. Rev. Respir. Dis. 1990 142:1422-8). […] After 16 to 24 hours had passed from the final cigarette smoke exposure, the trachea incision of the guinea pig was conducted under urethane ([…], i.p.) anesthesia, and a cannula was intubated and installed in a respiratory function measuring device system, a maneuver (manufactured by Baxco Co., Ltd.) for small animals. The respiratory function of the guinea pig was measured according to the protocol of the maneuver. In the medium administered control group and the medicine administered group, the amount of a functional residual air, the increase in the total lung capacity, and the decrease in the dynamic lung compliance by the cigarette smoke exposure were compared and the test of the significant difference was conducted. The data will be shown by the average±the standard deviation. […]

Data set [2] concerns scratching action induced by Compound 48/80. Nature of the data set: Anti-pruritic activity test by application (Compound 48/80 scratching). It is filed as in vivo, mouse (Crj:CD-1 (ICR)). The conditions noted are these: topical, read-out: Itching inhibition ratio % (Concentration %). Summed up: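 Female CD-1 (ICR) mice, 6–10 weeks, received 50 μL compound in acetone topically on clipped dorsal skin (acetone alone for controls). 15 min later, 3 μg Compound 48/80 injected intradermally at the site; hind-leg scratching counted over 30 min, 5–7 mice per group, means compared by Welch's t-test.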

Data set [3] deals with T1, CB1 receptor (Homo sapiens, UniProt P21554). Nature of the data set: cAMP formation inhibition experiment through a cannabinoid receptor (forskolin stimulation), CB1. It is filed as cell-based. Set-up: expressed in transfected cells; host or cells: CHO cells. The gist of the method: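 CHO cells expressing human CB1 were pre-incubated with compound for 15 min, then stimulated with forskolin (final 4 μM) for 20 min. The reaction was stopped with 1 M HCl and supernatant cAMP was measured by cAMP kit.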
T1 sequence (P21554 whole entry): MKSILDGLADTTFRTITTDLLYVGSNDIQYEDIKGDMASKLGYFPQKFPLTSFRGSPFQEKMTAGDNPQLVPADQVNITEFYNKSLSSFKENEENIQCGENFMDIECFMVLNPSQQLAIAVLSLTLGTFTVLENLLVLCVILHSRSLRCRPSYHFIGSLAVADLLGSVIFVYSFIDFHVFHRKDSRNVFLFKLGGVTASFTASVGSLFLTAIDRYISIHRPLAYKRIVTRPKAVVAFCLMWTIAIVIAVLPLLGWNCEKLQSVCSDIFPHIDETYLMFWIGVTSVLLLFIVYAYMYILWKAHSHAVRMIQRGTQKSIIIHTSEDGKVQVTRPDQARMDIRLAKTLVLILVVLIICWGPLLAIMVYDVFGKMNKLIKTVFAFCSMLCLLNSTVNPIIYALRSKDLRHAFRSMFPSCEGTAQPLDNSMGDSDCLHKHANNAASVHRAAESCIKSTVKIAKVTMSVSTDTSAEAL
(cAMP levels reflect the balance of adenylyl cyclase and phosphodiesterase activity.)

For data set [4], the target named is T2, CB2 receptor (Homo sapiens, UniProt P34972). Nature of the data set: cAMP formation inhibition experiment through a cannabinoid receptor (forskolin stimulation), CB2. Set-up: expressed in transfected cells; host or cells: CHO cells. In kind it is cell-based.
T2 sequence (P34972 whole entry): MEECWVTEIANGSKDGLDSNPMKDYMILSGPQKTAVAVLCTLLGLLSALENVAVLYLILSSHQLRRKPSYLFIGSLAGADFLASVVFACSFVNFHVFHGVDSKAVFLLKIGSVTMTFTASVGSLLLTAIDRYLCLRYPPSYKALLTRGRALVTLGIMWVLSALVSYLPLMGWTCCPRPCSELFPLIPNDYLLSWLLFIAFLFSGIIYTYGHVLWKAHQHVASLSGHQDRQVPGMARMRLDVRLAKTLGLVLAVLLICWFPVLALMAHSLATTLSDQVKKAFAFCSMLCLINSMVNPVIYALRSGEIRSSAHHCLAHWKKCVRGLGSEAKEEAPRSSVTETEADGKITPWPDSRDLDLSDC
Protocol: After the reaction had been stopped by adding 1M hydrochloric acid, the amount of cAMP in the supernatant was measured with the use of Cyclic AMP kit (made by the CIS Diagnostic Corp.).
The target of data set [5] is T1, CB1 receptor. Nature of the data set: Human cannabinoid receptor bonding inhibition test ([3H]CP55940), CB1. In kind it is binding. More on the design: expressed in transfected cells; membrane fraction.
Data set [6] deals with T2, CB2 receptor. The data set can be described thus: Human cannabinoid receptor bonding inhibition test ([3H]CP55940), CB2. Set-up: expressed in transfected cells; membrane fraction. In kind it is binding.
[7] abbreviates: read-out: Agonist activity (nM) CB1.
The mark [8] stands for this setting: [3H]CP55940 0.5 nM, membrane preparation of CHO cells expressing CB1, Ki calculated from IC50, read-out: Binding activity (nM) CB1.

Structures can show the parent of a compound that is named as a salt. Where two headings read alike, the source gives them in different places.

As usually defined, the melting point is the temperature of the solid-liquid transition. In turn, `CN1CCN(C(=O)C(C)(C)NC(=O)c2cc3c(n(CC4CCCCC4)c2=O)CCCCCC3)CC1` gave a melting point of 183 to 184 °C.

The molecule `CC(C)(NC(=O)c1cc2c(n(CC3CCCCC3)c1=O)CCCCCC2)C(=O)NN` yielded a melting point of 177 to 180 °C.

As for `CC(C)(NC(=O)c1cc2c(n(CCCNS(C)(=O)=O)c1=O)CCCCCC2)C(=O)O`, the melting point fell in the range of 183 to 184 °C.

The molecule `CCCCn1c(CCC)c(CC)cc(C(=O)NC2CCCCC2C(=O)O)c1=O` (stereo not shown) had a melting point of 167 to 169 °C.

As for `COC(=O)NCCCn1c2c(cc(C(=O)NC(C)(C)C(=O)OC)c1=O)CCCCCC2` (as salt: phosphate), the melting point fell in the range of 135 to 136 °C.

Take `COC(=O)C(NC(=O)c1cc2c(n(CC=O)c1=O)CCCCCC2)C(C)C` (stereo not shown) [(1), methyl 3-methyl-2-{[2-oxo-1-(2-oxo-ethyl)-1,2,5,6,7,8,9,10-octahydro-cycloocta[b]pyridine-3-carbonyl]-amino}-butyrate]: in data set [1], the “increase in the amount of a functional residual air by the cigarette smoke exposure, difference to medium group” value is listed as “significant difference of P<0.05” and the “increase in the total lung capacity by the cigarette smoke exposure, difference to medium group” value was “significant difference of P<0.05”.

For `CC(C)(NC(=O)c1cc2c(n(CC3CCCCC3)c1=O)CCCCCC2)C(=O)NNS(C)(=O)=O` [Compound I-052, 1-cyclohexylmethyl-2-oxo-1,2,5,6,7,8,9,10-octahydro-cycloocta[b]pyridine-3-carboxylic acid (1-methylsulfonylhydrazinocarbonyl-1-methyl-ethyl)-amide], the melting point lay in the range of 177 to 178 °C. Also, the inhibition in vivo at 3 % in data set [2] (Mus musculus) is 80%. Moreover, in data set [3] (setting [7]), the IC50 is 49 nM. This molecule also yielded an IC50 in data set [4] of 8.1 nM.

Turning to `CCc1c(C)cc(C(=O)NC(CC)(CC)CC(=O)O)c(=O)n1Cc1ccc(F)cc1` [Compound X-216], the inhibition in vivo at 1 % in data set [2] (Mus musculus) worked out at 106%. The Ki was 1770 nM in data set [5] (setting [8]) and 3.3 nM in data set [6]. For the same molecule, the IC50 is over 2000 nM in data set [3] and 30 nM in data set [4].

`O=C(O)COc1ccc(NC(=O)c2cc3c(n(CC4CCCCC4)c2=O)CCCCCC3)cc1` [Compound X-220]: the inhibition in vivo at 0.5 % in data set [2] (Mus musculus) came out at 97%. The Ki in data set [5] (read-out: Binding activity (nM) CB1) stood at 555 nM; in data set [6], 18 nM. For the same molecule, the IC50 was 1550 nM in data set [3] and 231 nM in data set [4] (read-out: Agonist activity (nM) CB2).

For `O=C(NC(C(=O)O)C(F)(F)F)c1cc2c(n(CC3CCCCC3)c1=O)CCCCCC2` (stereo not shown) [Compound X-229], the inhibition in vivo at 0.5 % in data set [2] (Mus musculus) came out at 105%. Further, the Ki in data set [5] (setting [8]) is 482 nM; in data set [6], 12 nM. The IC50 in data set [3] is 369 nM; in data set [4], 27 nM.

As to `O=C(O)CC(NC(=O)c1cc2c(n(Cc3ccc(F)cc3)c1=O)CCCCCC2)C(F)(F)F` (stereo not shown) [II-067], the inhibition in vivo at 3 % in data set [2] (Mus musculus) turned out to be 68%. Besides, the Ki was over 2000 nM in data set [5] (setting [8]) and 13 nM in data set [6]. For the same molecule, the IC50 in data set [3] turned out to be 685 nM; in data set [4] it was 4.9 nM.

For the molecule `CC(C)C[C@@H](CC(=O)O)NC(=O)c1cc2c(n(CC3CCCCC3)c1=O)CCCCCC2` [II-069], the inhibition in vivo at 3 % in data set [2] (Mus musculus) is 84%. The Ki in data set [5] was determined as 88 nM; in data set [6] it was 3.4 nM. The IC50 in data set [3] (setting [7]) was determined as 5.6 nM; in data set [4], 2.1 nM.

As for `O=C(O)CC1(NC(=O)c2cc3c(n(CC4CCCCC4)c2=O)CCCCCC3)CCCCC1` [II-073], the inhibition in vivo at 3 % in data set [2] (Mus musculus) is 58%. The results for the Ki in data set [5] and in data set [6] were 88 nM and 6.2 nM, respectively. Further, the values for the IC50 in data set [3] (setting [7]) and in data set [4] were 11 nM and 0.2 nM, respectively.

For `C/C=C/C(CC(=O)O)NC(=O)c1cc2c(n(CC3CCCCC3)c1=O)CCCCCC2` (stereo not shown) [II-075], the inhibition in vivo at 3 % in data set [2] (Mus musculus) is 95%. Further, the Ki in data set [5] (setting [8]) was 652 nM; in data set [6], 48 nM. Moreover, the IC50 worked out at 290 nM in data set [3] and 4.6 nM in data set [4].

As to `O=C(O)CC(NC(=O)c1cc2c(n(CC3CCCCC3)c1=O)CCCCCC2)C(F)(F)F` (stereo not shown) [II-076], the inhibition in vivo at 3 % in data set [2] (Mus musculus) came out at 86%. The Ki in data set [5] (setting [8]) is over 2000 nM; in data set [6], 41 nM. Besides, the IC50 is over 2000 nM in data set [3] and 1.2 nM in data set [4].

`CC(C)C[C@@H](CC(=O)O)NC(=O)c1cc2c(n(Cc3ccc(F)cc3)c1=O)CCCCCC2` [II-078]: the inhibition in vivo at 3 % in data set [2] (Mus musculus) stood at 94%. For the same molecule, the Ki in data set [5] (setting [8]) is 1450 nM; in data set [6] it was 27 nM. The values for the IC50 in data set [3] and in data set [4] were 252 nM and under 2 nM, respectively.

As for `CC(C)(CCNC(=O)c1cc2c(n(CC3CCCCC3)c1=O)CCCCCC2)C(=O)O` [III-017], in data set [2] (Mus musculus), the inhibition in vivo at 3 % was 76%. In addition, the Ki was 149 nM in data set [5] (setting [8]) and 15 nM in data set [6]. Besides, the IC50 in data set [3] amounted to 322 nM; in data set [4], 35 nM.

`O=C(O)Cc1csc(NC(=O)c2cc3c(n(CC4CCCCC4)c2=O)CCCCCC3)n1` [IV-023]: the inhibition in vivo at 3 % in data set [2] (applied as acetone solution 50 μL, concentration 3.0%, mouse, Compound 48/80) came to 116%. The Ki in data set [5] (setting [8]) is 425 nM; in data set [6] ([3H]CP55940 0.5 nM, membrane preparation of CHO cells expressing CB2, Ki calculated from IC50, read-out: Binding activity (nM) CB2) it was 22 nM. For the same molecule, the IC50 in data set [3] (inhibition of forskolin (4 μM)-stimulated cAMP formation, CHO cells expressing human CB1, read-out: Agonist activity (nM) CB1) was 398 nM; in data set [4] (inhibition of forskolin (4 μM)-stimulated cAMP formation, CHO cells expressing human CB2, read-out: Agonist activity (nM) CB2) it was 11 nM.

As for `O=C(O)Cc1csc(NC(=O)c2cc3c(n(CC4CCCCC4)c2=O)CCCCCC3)c1` [IV-029], the inhibition in vivo at 1 % in data set [2] (Mus musculus) was found to be 93%. Moreover, the Ki in data set [5] (setting [8]) was 1320 nM; in data set [6], 43 nM. The IC50 amounted to 606 nM in data set [3] and 22 nM in data set [4].

On to `COCCn1c2c(cc(C(=O)NC3(CC(=O)O)CCCC3)c1=O)CCCCCC2` [XI-035], for which the inhibition in vivo at 0.5 % in data set [2] (Mus musculus) is 69%. Moreover, the Ki is over 2000 nM in data set [5] and 31 nM in data set [6]. Further, the results for the IC50 in data set [3] (setting [7]) and in data set [4] were over 2000 nM and 47 nM, respectively.
